The structures appear in SMILES notation.

The target of one experiment is T1, p300 (Homo sapiens, UniProt P41182+Q09472).
T1 construct: endogenous in cells; host or cells: SUDHL5
The experiment is described as follows: p300 immunoprecipitation-mass spectrometry in SUDHL5. Type of experiment: cell-based. To be noted: SUDHL5, 1 nM, 2 h, vs DMSO. How it is done: 50 million FLAG-BCL6 knock-in SUDHL5 cells were treated compound or DMSO (0.1%) at indicated doses for 2 hours. Cells were lysed in NE10 buffer (20 mM HEPES (pH 7.5), 10 mM KCl, 1 mM MgCl2, 0.1% Triton X-100 (v/v), protease inhibitors (Roche), 15 mM ß-mercaptoethanol), dounced 15 times and pelleted 5 min at 500 g. Nuclei were washed in NE10 buffer and then digested with 250 units benzonase (Millipore) for 30 min rotating at 25°C. Nuclei were resuspended in NE150 buffer (NE10 supplemented with 150mM NaCl) and incubated for 20 min. Lysates were pelleted at 16,000 g for 20 min at 4°C and supernatants were immunoprecipitated by incubating with 2.5 μg FLAG M2 antibody (F1804, Millipore-Sigma) or 2.5 μg p300 (A300–358A, Bethyl Laboratories) antibody with Dynabeads Protein G (Thermo Fisher) overnight at 4°C. The IP fraction was recovered by magnetic separation followed by three washes with NE10 buffer containing 150mM–300mM NaCl but without Triton-X. For mass spectrometry analysis, the IP was then eluted from the beads with Ammonium Hydroxide, pH 11–12; 3% v/v. […]
The reconstituted desalted peptides were then analyzed using a nanoElute 2 UHPLC (Bruker Daltonics, Bremen, Germany) coupled to a timsTOF HT (Bruker Daltonics, Bremen, Germany) via a CaptiveSpray nano-electrospray source. […]

For a further experiment, the system named is c-MYC. In words: RNA-seq, c-MYC transcripts in SUDHL5. To be noted: SUDHL5, 1 nM, 2 hours. Type of experiment: cell-based, human. The method, then:
Cells were plated at 1M/mL and harvested in TRIsure (Bioline 38033). RNA was extracted using Direct-zol RNA MicroPrep columns (Zymo R2062) treated with DNAseI. cDNA was prepared (Meridian Bioscience BIO-65054) and used for qPCR (Meridian Bioscience BIO-94050) using an AppliedBiosystems QuantStudio 6Pro. Primer sequences were the following:
For sequencing library preparation, rRNA was depleted (NEB E7400) and total RNA prepared into paired-end libraries (NEB E7765) and indexed (NEB E7335). Library size distributions were confirmed using an Agilent Bioanalyzer and High Sensitivity DNA reagents (Agilent 5067) and concentrations determined by qPCR. […]
Raw reads were checked for quality using fastqc (https://www.bioinformatics.babraham.ac.uk/projects/fastqc/) and trimmed from adapters using cutadapt[111] using parameters cutadapt -a […] -b […] --nextseq-trim=20 --minimum-length 1. Transcripts were quantified using kallisto[112] against the human Gencode v33 indexed transcriptome and annotations. […] Re-processed published datasets from the Sequence Read Archive (SRA) were the following: TCIP1 – SRX20228454, SRX20228455, SRX202284546, SRX20228457, SRX20228458, SRX20228459, SRX20228448, SRX20228449, SRX20228450; CDK-TCIP1 – SRX22117221, SRX22117222, SRX22117223, SRX22117224, SRX22117225, SRX22117226, SRX22117227, SRX22117228, SRX22117229).

T1 sequence (Q09472 2-2414 limits assumed, other chains not shown): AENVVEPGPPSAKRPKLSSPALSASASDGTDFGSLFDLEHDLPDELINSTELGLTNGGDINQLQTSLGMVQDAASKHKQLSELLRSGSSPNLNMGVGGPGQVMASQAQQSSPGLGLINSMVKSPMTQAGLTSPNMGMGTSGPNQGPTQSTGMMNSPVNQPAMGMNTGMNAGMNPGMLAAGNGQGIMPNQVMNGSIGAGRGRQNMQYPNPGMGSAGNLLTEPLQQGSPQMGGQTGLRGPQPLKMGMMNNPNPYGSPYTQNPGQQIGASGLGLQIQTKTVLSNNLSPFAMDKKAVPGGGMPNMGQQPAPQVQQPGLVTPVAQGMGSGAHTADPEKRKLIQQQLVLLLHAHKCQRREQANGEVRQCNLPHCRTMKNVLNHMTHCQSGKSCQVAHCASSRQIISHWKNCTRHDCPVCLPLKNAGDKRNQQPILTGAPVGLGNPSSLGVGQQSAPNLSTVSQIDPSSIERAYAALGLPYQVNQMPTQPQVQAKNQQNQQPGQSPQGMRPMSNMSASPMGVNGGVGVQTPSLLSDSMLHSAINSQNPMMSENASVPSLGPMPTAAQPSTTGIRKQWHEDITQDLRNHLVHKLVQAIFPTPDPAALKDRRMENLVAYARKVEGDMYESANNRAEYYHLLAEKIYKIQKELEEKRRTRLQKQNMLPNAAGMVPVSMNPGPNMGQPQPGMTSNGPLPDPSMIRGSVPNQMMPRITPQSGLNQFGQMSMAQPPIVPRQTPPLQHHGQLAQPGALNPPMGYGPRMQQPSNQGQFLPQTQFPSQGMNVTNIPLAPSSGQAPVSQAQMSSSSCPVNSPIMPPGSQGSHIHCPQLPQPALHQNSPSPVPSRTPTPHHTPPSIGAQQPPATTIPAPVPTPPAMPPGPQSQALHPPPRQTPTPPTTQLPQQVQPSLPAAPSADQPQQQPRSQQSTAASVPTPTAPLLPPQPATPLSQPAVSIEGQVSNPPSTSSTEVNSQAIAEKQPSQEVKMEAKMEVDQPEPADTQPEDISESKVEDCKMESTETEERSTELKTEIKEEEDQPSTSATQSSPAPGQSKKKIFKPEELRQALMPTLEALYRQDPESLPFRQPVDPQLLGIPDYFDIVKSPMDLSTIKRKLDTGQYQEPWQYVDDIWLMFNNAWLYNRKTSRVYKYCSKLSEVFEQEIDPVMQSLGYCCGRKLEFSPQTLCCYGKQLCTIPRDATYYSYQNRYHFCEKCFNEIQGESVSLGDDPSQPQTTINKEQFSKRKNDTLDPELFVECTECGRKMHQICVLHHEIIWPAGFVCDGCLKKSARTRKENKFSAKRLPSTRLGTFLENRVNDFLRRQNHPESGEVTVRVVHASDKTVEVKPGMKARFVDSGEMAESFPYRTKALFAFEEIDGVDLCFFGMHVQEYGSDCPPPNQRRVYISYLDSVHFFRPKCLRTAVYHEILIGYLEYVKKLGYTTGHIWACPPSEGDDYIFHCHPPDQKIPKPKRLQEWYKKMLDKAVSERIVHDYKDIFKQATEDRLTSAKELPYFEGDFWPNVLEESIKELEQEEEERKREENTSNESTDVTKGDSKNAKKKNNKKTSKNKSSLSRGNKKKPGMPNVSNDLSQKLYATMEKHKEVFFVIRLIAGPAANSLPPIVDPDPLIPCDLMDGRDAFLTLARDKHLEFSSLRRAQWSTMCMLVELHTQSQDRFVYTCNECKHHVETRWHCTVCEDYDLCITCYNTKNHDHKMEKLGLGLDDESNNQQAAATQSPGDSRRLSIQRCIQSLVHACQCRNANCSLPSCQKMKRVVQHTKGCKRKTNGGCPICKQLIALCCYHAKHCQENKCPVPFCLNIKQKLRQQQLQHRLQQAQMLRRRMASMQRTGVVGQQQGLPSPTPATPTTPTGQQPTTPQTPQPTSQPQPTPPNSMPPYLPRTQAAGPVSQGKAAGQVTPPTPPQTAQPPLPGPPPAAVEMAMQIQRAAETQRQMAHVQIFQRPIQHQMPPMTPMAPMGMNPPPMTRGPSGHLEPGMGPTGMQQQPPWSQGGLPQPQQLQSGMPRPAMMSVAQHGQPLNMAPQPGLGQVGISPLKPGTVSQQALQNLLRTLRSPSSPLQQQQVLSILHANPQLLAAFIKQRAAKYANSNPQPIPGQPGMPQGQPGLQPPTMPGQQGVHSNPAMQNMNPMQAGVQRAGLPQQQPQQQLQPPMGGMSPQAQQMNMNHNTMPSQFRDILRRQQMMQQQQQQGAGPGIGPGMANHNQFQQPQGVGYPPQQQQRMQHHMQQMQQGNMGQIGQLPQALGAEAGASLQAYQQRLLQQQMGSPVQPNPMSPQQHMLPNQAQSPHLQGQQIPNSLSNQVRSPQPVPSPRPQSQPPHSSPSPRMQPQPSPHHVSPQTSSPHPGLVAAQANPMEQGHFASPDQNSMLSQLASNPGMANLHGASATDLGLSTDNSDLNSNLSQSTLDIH

Regarding `CNC(=O)COc1cc2cc(Nc3nc(N4CCC(C(=O)N5CCN(CCC(=O)N6CCC(n7nc(N8CCCc9cc(-c%10cnn(C)c%10)c(C(F)F)cc98)c8c7CCN(C(=O)NC)C8)CC6)CC5)CC4)ncc3Cl)cc(OC)c2n(C)c1=O` [TCIP3], on p300, the “enrichment of BCL6 in p300 IP, log2(fold change)” value was determined as 4.0. The “c-MYC mRNA log2(fold change)” value in the experiment with c-MYC is reported as −2.71.

For the origin of these results see publication doi:10.1101/2025.03.14.643404, “A Bivalent Molecular Glue Linking Lysine Acetyltransferases to Oncogene-induced Cell Death” (bioRxiv, 2025).
